From PMC3920255 (Toxins, 2013)
≈ marks a conversion by molar mass, not a printed value. Read-outs that look alike come from different tables or passages of the source. Numbered stars: 1 amine (or outer) side, 2 acyl side, 3 side chain; on linkers, the order of the positions; unused ones are H or OH. Bridge positions count the residues as written; N and C are the ends. Square brackets hold non-standard residues; d marks the D form. Peptide text beside a SMILES is read from it. Adda = CO[C@@H](Cc1ccccc1)[C@@H](C)/C=C(C)/C=C/[C@H](N[*:1])[C@H](C)C(=O)[*:2]; dAsp(3S-Me) = C[C@H](C(=O)[*:3])[C@@H](N[*:1])C(=O)[*:2]; d(γGlu) = O=C(O)[C@@H](CCC(=O)[*:2])N[*:1]; NMeDha = C=C(NC)C(=O)O; Dha = C=C(N)C(=O)O

Columns and labels:
primary rat hepatocytes = conditions: cited from earlier work
[1] = system: primary cultured rat hepatocytes

C=C1C(=O)N[C@H](C)C(=O)N[C@@H](CC(C)C)C(=O)N[C@@H](C(=O)O)[C@H](C)C(=O)N[C@@H](CCCNC(=N)N)C(=O)N[C@@H](/C=C/C(C)=C/[C@H](C)[C@H](Cc2ccccc2)OC)[C@H](C)C(=O)N[C@@H](C(=O)O)CCC(=O)N1C [No.1, MC-LR, reference compound] (R[Adda][d(γGlu)][NMeDha][dA]L[dAsp(3S-Me)]-OH; lactam N-7)
IC50 of MC-LR to primary rat hepatocytes, earlier study (primary rat hepatocytes): 0.048 µg/mL | IC50 (concentration showing 50% cell viability) [1]: 0.800 µg/mL (≈ 0.804 µM)

C=C1NC(=O)CC[C@H](C(=O)O)NC(=O)[C@@H](C)[C@H](/C=C/C(C)=C/[C@H](C)[C@H](Cc2ccccc2)OC)NC(=O)[C@H](CCCNC(=N)N)NC(=O)[C@@H](C)[C@H](C(=O)O)NC(=O)[C@H](CC(C)C)NC(=O)[C@@H](C)NC1=O [No.2, [Dha^7] MC-LR] (R[Adda][d(γGlu)][Dha][dA]L[dAsp(3S-Me)]-OH; lactam N-7)
IC50 (concentration showing 50% cell viability) [1]: 0.217 µg/mL (≈ 0.221 µM)

C=C1C(=O)N[C@H](C)C(=O)N[C@@H](CC(C)C)C(=O)N[C@@H](C(=O)O)CC(=O)N[C@@H](CCCNC(=N)N)C(=O)N[C@@H](/C=C/C(C)=C/[C@H](C)[C@H](Cc2ccccc2)OC)[C@H](C)C(=O)N[C@@H](C(=O)O)CCC(=O)N1C [No.3, [D-Asp^3] MC-LR]
IC50 (concentration showing 50% cell viability) [1]: 0.217 µg/mL (≈ 0.221 µM)

C=C1NC(=O)CC[C@H](C(=O)O)NC(=O)[C@@H](C)[C@H](/C=C/C(C)=C/[C@H](C)[C@H](Cc2ccccc2)OC)NC(=O)[C@H](CCCNC(=N)N)NC(=O)C[C@H](C(=O)O)NC(=O)[C@H](CC(C)C)NC(=O)[C@@H](C)NC1=O [No.4, [D-Asp^3, Dha^7] MC-LR]
IC50 (concentration showing 50% cell viability) [1]: 0.217 µg/mL (≈ 0.224 µM)

C/C=C1/NC(=O)CC[C@H](C(=O)O)NC(=O)[C@@H](C)[C@H](/C=C/C(C)=C/[C@H](C)[C@H](Cc2ccccc2)OC)NC(=O)[C@H](CCCNC(=N)N)NC(=O)C[C@H](C(=O)O)NC(=O)[C@H](CC(C)C)NC(=O)[C@@H](C)NC1=O [No.5, [D-Asp^3, E-Dhb^7] MC-LR]
IC50 (concentration showing 50% cell viability) [1]: 0.133 µg/mL (≈ 0.136 µM)

C/C=C1\NC(=O)CC[C@H](C(=O)O)NC(=O)[C@@H](C)[C@H](/C=C/C(C)=C/[C@H](C)[C@H](Cc2ccccc2)OC)NC(=O)[C@H](CCCNC(=N)N)NC(=O)C[C@H](C(=O)O)NC(=O)[C@H](CC(C)C)NC(=O)[C@@H](C)NC1=O [No.6, [D-Asp^3, Z-Dhb^7] MC-LR]
IC50 (concentration showing 50% cell viability) [1]: 0.053 µg/mL (≈ 0.054 µM)

C=C1C(=O)N[C@H](C)C(=O)N[C@@H](Cc2ccc(O)cc2)C(=O)N[C@@H](C(=O)O)[C@H](C)C(=O)N[C@@H](CCCNC(=N)N)C(=O)N[C@@H](/C=C/C(C)=C/[C@H](C)[C@H](Cc2ccccc2)OC)[C@H](C)C(=O)N[C@@H](C(=O)O)CCC(=O)N1C [No.7, MC-YR] (R[Adda][d(γGlu)][NMeDha][dA]Y[dAsp(3S-Me)]-OH; lactam N-7)
IC50 (concentration showing 50% cell viability) [1]: 1.48 µg/mL (≈ 1.42 µM)

C=C1NC(=O)CC[C@H](C(=O)O)NC(=O)[C@@H](C)[C@H](/C=C/C(C)=C/[C@H](C)[C@H](Cc2ccccc2)OC)NC(=O)[C@H](CCCNC(=N)N)NC(=O)[C@@H](C)[C@H](C(=O)O)NC(=O)[C@H](Cc2ccc(O)cc2)NC(=O)[C@@H](C)NC1=O [No.8, [Dha^7] MC-YR] (R[Adda][d(γGlu)][Dha][dA]Y[dAsp(3S-Me)]-OH; lactam N-7)
IC50 (concentration showing 50% cell viability) [1]: 0.418 µg/mL (≈ 0.405 µM)

C=C1C(=O)N[C@H](C)C(=O)N[C@@H](CCc2ccc(O)cc2)C(=O)N[C@@H](C(=O)O)CC(=O)N[C@@H](CCCNC(=N)N)C(=O)N[C@@H](/C=C/C(C)=C/[C@H](C)[C@H](Cc2ccccc2)OC)[C@H](C)C(=O)N[C@@H](C(=O)O)CCC(=O)N1C [No.9, [D-Asp^3] MC-HtyR]
IC50 (concentration showing 50% cell viability) ([1]; 72 h): 0.347 µg/mL (≈ 0.332 µM)

C/C=C1/NC(=O)CC[C@H](C(=O)O)NC(=O)[C@@H](C)[C@H](/C=C/C(C)=C/[C@H](C)[C@H](Cc2ccccc2)OC)NC(=O)[C@H](CCCNC(=N)N)NC(=O)C[C@H](C(=O)O)NC(=O)[C@H](CCc2ccc(O)cc2)NC(=O)[C@@H](C)NC1=O [No.10, [D-Asp^3, E-Dhb^7] MC-HtyR]
IC50 (concentration showing 50% cell viability) ([1]; 72 h): 0.327 µg/mL (≈ 0.313 µM)

C/C=C1\NC(=O)CC[C@H](C(=O)O)NC(=O)[C@@H](C)[C@H](/C=C/C(C)=C/[C@H](C)[C@H](Cc2ccccc2)OC)NC(=O)[C@H](CCCNC(=N)N)NC(=O)C[C@H](C(=O)O)NC(=O)[C@H](CCc2ccc(O)cc2)NC(=O)[C@@H](C)NC1=O [No.11, [D-Asp^3, Z-Dhb^7] MC-HtyR]
IC50 (concentration showing 50% cell viability) ([1]; 72 h): 0.120 µg/mL (≈ 0.115 µM)

C=C1C(=O)N[C@H](C)C(=O)N[C@@H](CCCNC(=N)N)C(=O)N[C@@H](C(=O)O)[C@H](C)C(=O)N[C@@H](CCCNC(=N)N)C(=O)N[C@@H](/C=C/C(C)=C/[C@H](C)[C@H](Cc2ccccc2)OC)[C@H](C)C(=O)N[C@@H](C(=O)O)CCC(=O)N1C [No.12, MC-RR] (R[Adda][d(γGlu)][NMeDha][dA]R[dAsp(3S-Me)]-OH; lactam N-7)
IC50 (concentration showing 50% cell viability) [1]: >10 µg/mL

C=C1NC(=O)CC[C@H](C(=O)O)NC(=O)[C@@H](C)[C@H](/C=C/C(C)=C/[C@H](C)[C@H](Cc2ccccc2)OC)NC(=O)[C@H](CCCNC(=N)N)NC(=O)[C@@H](C)[C@H](C(=O)O)NC(=O)[C@H](CCCNC(=N)N)NC(=O)[C@@H](C)NC1=O [No.14, [Dha^7] MC-RR] (R[Adda][d(γGlu)][Dha][dA]R[dAsp(3S-Me)]-OH; lactam N-7)
IC50 (concentration showing 50% cell viability) [1]: 5.33 µg/mL (≈ 5.2 µM)

C=C1NC(=O)CC[C@H](C(=O)O)NC(=O)[C@@H](C)[C@H](/C=C/C(C)=C/[C@H](C)[C@H](Cc2ccccc2)OC)NC(=O)[C@H](CCCNC(=N)N)NC(=O)C[C@H](C(=O)O)NC(=O)[C@H](CCCNC(=N)N)NC(=O)[C@@H](C)NC1=O [No.15, [D-Asp^3, Dha^7] MC-RR]
IC50 (concentration showing 50% cell viability) [1]: 4.11 µg/mL (≈ 4.07 µM)
